Reference: patent US20200002303A1, “C-GLYCOSIDE COMPOUNDS USEFUL FOR TREATING DISEASE” (Fimbrion Therapeutics, Inc., priority 2016, published 2020)

tested on: UTI89 bacteria; experiment: Biofilm inhibition assay with UTI89 bacteria; assay type: cell-based; settings: read-out: Biofilm prevention IC50
Protocol: The biofilm inhibition assay was performed with UTI89 bacteria as previously described (L. Cegelski, J. S. Pinkner, N. D. Hammer, C. K. Cusumano, C. S. Hung, E. Chorell, V. Aberg, J. N. Walker, P. C. Seed, F. Almqvist, M. R. Chapman, S. J. Hultgren Nature Chem. Biol. 2009, 5, 913-919). Compounds not listed were not tested.

| SMILES | IC50 |
| --- | --- |
| Cc1cc(-c2ccc3cc[nH]c(=O)c3c2)ccc1[C@@H](O)[C@H]1O[C@H](CO)[C@@H](O)[C@H](O)[C@@H]1O [Example 2, 7-(4-((R)-hydroxy((2R,3S,4S,5S,6R)-3,4,5-trihydroxy-6-(hydroxymethyl)tetrahydro-2H-pyran-2-yl)methyl)-3-methylphenyl)isoquinolin-1 (2H)-one] | 30 nM |

target: T1, FimH (Escherichia coli, UniProt Q1R2J4); experiment: not given; assay type: cell-based; settings: concentration reducing bacterial agglutination of guinea pig red blood cells by greater than 90%; UTI89 bacteria
T1 construct: performed with UTI89 bacteria and guinea pig red blood cells; endogenous in cells; host or cells: UTI89 bacteria (whole cells, type 1 piliated)
Protocol: The hemagglutination inhibition (HAI) assay was performed with UTI89 bacteria and guinea pig red blood cells, as previously described (S. J. Hultgren, W. R. Schwan, A. J. Schaeffer, J. L. Duncan Infect. Immun. 1986, 54, 613-620).

| SMILES | HAI titer EC>90 |
| --- | --- |
| Cc1cc(-c2ccc3cc[nH]c(=O)c3c2)ccc1[C@@H](O)[C@H]1O[C@H](CO)[C@@H](O)[C@H](O)[C@@H]1O [Example 2, 7-(4-((R)-hydroxy((2R,3S,4S,5S,6R)-3,4,5-trihydroxy-6-(hydroxymethyl)tetrahydro-2H-pyran-2-yl)methyl)-3-methylphenyl)isoquinolin-1 (2H)-one] | 0.006 µM |
| Cc1cc(-c2ccc3c(c2)C(=O)NC3)ccc1[C@@H](O)[C@H]1O[C@H](CO)[C@@H](O)[C@H](O)[C@@H]1O [Example 19, 6-(4-((R)-Hydroxy ((2R,3S,4S,5S,6R)-3,4,5-trihydroxy-6-(hydroxymethyl)-tetrahydro-2H-pyran-2-yl)methyl)-3-methylphenyl)isoindolin-1-one] | 0.016 µM |
| Cc1cc(-n2cc(-c3cccnc3)nn2)ccc1[C@@H](O)[C@H]1O[C@H](CO)[C@@H](O)[C@H](O)[C@@H]1O [Example 49, (2R,3S,4S,5S,6R)-2-((R)-hydroxy(2-methyl-4-(4-(pyridin-3-yl)-1H-1,2,3-triazol-1-yl)-phenyl)methyl)-6-(hydroxymethyl)tetrahydro-2H-pyran-3,4,5-triol] | 0.015 µM |
| Cc1cc(-c2ccc3ccn(C)c(=O)c3c2)ccc1[C@@H](O)[C@H]1O[C@H](CO)[C@@H](O)[C@H](O)[C@@H]1O [Example 11, 7-(4-((R)-Hydroxy ((2R,3S,4S,5S,6R)-3,4,5-trihydroxy-6-(hydroxymethyl)-tetrahydro-2H-pyran-2-yl)methyl)-3-methylphenyl)-2-methylisoquinolin-1 (2H)-one] | 0.011 µM |
| Cc1cc(-c2ccc3ncn(C)c3c2)ccc1[C@@H](O)[C@H]1O[C@H](CO)[C@@H](O)[C@H](O)[C@@H]1O [Example 16, (2R,3S,4S,5S,6R)-2-((R)-Hydroxy (2-methyl-4-(3-methyl-3H-benzo[d]imidazol-5-yl)phenyl)methyl)-6-(hydroxymethyl)-tetrahydro-2H-pyran-3,4,5-triol] | 0.042 µM |
| Cc1cc(-c2ccc3cnccc3c2)ccc1[C@@H](O)[C@H]1O[C@H](CO)[C@@H](O)[C@H](O)[C@@H]1O [Example 10, (2R,3S,4S,5S,6R)-2-((R)-Hydroxy (4-(isoquinolin-6-yl)-2-methylphenyl)methyl)-6-(hydroxymethyl)-tetrahydro-2H-pyran-3,4,5-triol] | 0.052 µM |
| Cc1cc(-c2ccc3onc(N)c3c2)ccc1[C@@H](O)[C@H]1O[C@H](CO)[C@@H](O)[C@H](O)[C@@H]1O [Example 28, (2R,3S,4S,5S,6R)-2-((R)-(4-(3-Aminobenzo[d]isoxazol-5-yl)-2-methylphenyl) (hydroxy)methyl)-6-(hydroxymethyl)-tetrahydro-2H-pyran-3,4,5-triol] | 0.027 µM |
| Cc1cc(-c2ccnc(N(C)C)c2)ccc1[C@@H](O)[C@H]1O[C@H](CO)[C@@H](O)[C@H](O)[C@@H]1O [Example 27, (2R,3S,4S,5S,6R)-2-((R)-(4-(2-(Dimethylamino)pyridin-4-yl)-2-methylphenyl) (hydroxy)methyl)-6-(hydroxymethyl)-tetrahydro-2H-pyran-3,4,5-triol] | 0.016 µM |
| CNC(=O)c1cc(C(=O)NC)cc(-c2ccc([C@@H](O)[C@H]3O[C@H](CO)[C@@H](O)[C@H](O)[C@@H]3O)c(C)c2)c1 [Example 38, 4′-((R)-Hydroxy ((2R,3S,4S,5S,6R)-3,4,5-trihydroxy-6-(hydroxymethyl)-tetrahydro-2H-pyran-2-yl)methyl)-N^3,N^5,3′-trimethylbiphenyl-3,5-dicarboxamide] | 0.007 µM |
| CNC(=O)c1cccc(-c2ccc([C@H](O)[C@H]3OC(CO)[C@@H](O)[C@H](O)C3O)c(C(F)(F)F)c2)c1 (single isomer, unassigned) [Example 40] | 5 µM |
| Cc1cc(-c2ccnc(N)c2)ccc1[C@@H](O)[C@H]1O[C@H](CO)[C@@H](O)[C@H](O)[C@@H]1O [Example 26, (2R,3S,4S,5S,6R)-2-((R)-(4-(2-Aminopyridin-4-yl)-2-methylphenyl) (hydroxy)methyl)-6-(hydroxymethyl)-tetrahydro-2H-pyran-3,4,5-triol] | 0.039 µM |
| Cc1cc(-c2ccc3c(c2)C(=O)N(C)CC3)ccc1[C@@H](O)[C@H]1O[C@H](CO)[C@@H](O)[C@H](O)[C@@H]1O [Example 12, 7-(4-((R)-Hydroxy ((2R,3S,4S,5S,6R)-3,4,5-trihydroxy-6-(hydroxymethyl)-tetrahydro-2H-pyran-2-yl)methyl)-3-methylphenyl)-2-methyl-3,4-dihydroisoquinolin-1 (2H)-one] | 0.008 µM |
| CNc1cc(-c2ccc([C@@H](O)[C@H]3O[C@H](CO)[C@@H](O)[C@H](O)[C@@H]3O)c(C)c2)ccn1 [Example 24, (2R,3S,4S,5S,6R)-2-((R)-Hydroxy (2-methyl-4-(2-(methylamino)pyridin-4-yl)phenyl)methyl)-6-(hydroxymethyl)-tetrahydro-2H-pyran-3,4,5-triol] | 0.032 µM |
| Cc1cc(-c2cccc3c(N)n[nH]c23)ccc1[C@@H](O)[C@H]1O[C@H](CO)[C@@H](O)[C@H](O)[C@@H]1O [Example 18, (2R,3S,4S,5S,6R)-2-((R)-(4-(3-Amino-1H-indazol-7-yl)-2-methylphenyl) (hydroxy)methyl)-6-(hydroxymethyl)-tetrahydro-2H-pyran-3,4,5-triol] | 0.006 µM |
| O=C1NCCc2ccc(-c3ccc([C@@H](O)[C@H]4O[C@H](CO)[C@@H](O)[C@H](O)[C@@H]4O)c(C(F)(F)F)c3)cc21 [Example 33, 7-(4-((R)-Hydroxy ((2R,3S,4S,5S,6R)-3,4,5-trihydroxy-6-(hydroxymethyl)-tetrahydro-2H-pyran-2-yl)methyl)-3-(trifluoromethyl)phenyl)-3,4-dihydroisoquinolin-1 (2H)-one] | 0.006 µM |
| Cc1cc(-c2ccc3c(c2)C(=O)N(C(C)C)CC3)ccc1[C@@H](O)[C@H]1O[C@H](CO)[C@@H](O)[C@H](O)[C@@H]1O [Example 32, 7-(4-((R)-Hydroxy ((2R,3S,4S,5S,6R)-3,4,5-trihydroxy-6-(hydroxymethyl)-tetrahydro-2H-pyran-2-yl)methyl)-3-methylphenyl)-2-isopropyl-3,4-dihydroisoquinolin-1 (2H)-one] | 0.006 µM |
| Cc1cc(-c2cccc3c2CCN(C)C3)ccc1[C@@H](O)[C@H]1O[C@H](CO)[C@@H](O)[C@H](O)[C@@H]1O [Example 5, (2R,3S,4S,5S,6R)-2-((R)-hydroxy(2-methyl-4-(2-methyl-1,2,3,4-tetrahydroisoquinolin-5-yl)phenyl)methyl)-6-(hydroxymethyl)tetrahydro-2H-pyran-3,4,5-triol] | 1 µM |
| CNC(=O)c1cccc(-c2ccc([C@@H](OC)[C@H]3O[C@H](CO)[C@@H](O)[C@H](O)[C@@H]3O)c(C)c2)c1 [Example 7, 4′-((R)-methoxy((2S,3S,4S,5S,6R)-3,4,5-trihydroxy-6-(hydroxymethyl)tetrahydro-2H-pyran-2-yl)methyl)-N,3′-dimethylbiphenyl-3-carboxamide] | 2 µM |
| Cc1cc(-c2ccc3ccncc3c2)ccc1[C@@H](O)[C@H]1O[C@H](CO)[C@@H](O)[C@H](O)[C@@H]1O [Example 21, (2R,3S,4S,5S,6R)-2-((R)-Hydroxy (4-(isoquinolin-7-yl)-2-methylphenyl)methyl)-6-(hydroxymethyl)-tetrahydro-2H-pyran-3,4,5-triol] | 0.016 µM |
| Cc1cc(-c2ccc(C#N)cc2)ccc1[C@@H](O)[C@H]1O[C@H](CO)[C@@H](O)[C@H](O)[C@@H]1O [Example 46, 4′-((R)-hydroxy((2R,3S,4S,5S,6R)-3,4,5-trihydroxy-6-(hydroxymethyl)tetrahydro-2H-pyran-2-yl)methyl)-3′-methylbiphenyl-4-carbonitrile] | 0.053 µM |
| CNC(=O)c1cccc(-c2ccc(C(F)(F)[C@H]3O[C@H](CO)[C@@H](O)[C@H](O)[C@@H]3O)c(C)c2)c1 [Example 9, 4′-(difluoro((2S,3S,4S,5S,6R)-3,4,5-trihydroxy-6-(hydroxymethyl)tetrahydro-2H-pyran-2-yl)methyl)-N,3′-dimethylbiphenyl-3-carboxamide] | 1.5 µM |

target: T2, FimHL (Escherichia coli, UniProt P08191); experiment: Differential scanning fluorimetry (DSF) with purified FimHL; assay type: binding; settings: FimHL 10 μM with mannoside 100 μM, SYPRO Orange, HEPES pH 7.5; Tm from Boltzmann fit
T2 construct: Purified FimHL (10 μM) in the absence or presence of mannoside (100 μM)
Protocol: Purified FimHL (10 μM) in the absence or presence of mannoside (100 μM) was combined with 5×SYPRO Orange in a 50 μl reaction mixture buffered in 20 mM HEPES pH 7.5, 150 mM NaCl (HBS) and 0.4% DMSO. Binding equilibria were established by allowing the reaction mixtures to incubate at 23° C. for 30 min. These reaction mixtures were then placed in 96-well clear-bottom PCR plates and subjected to a melt curve from 20-90° C. in 0.5° C. increments of 15 seconds, each followed by a fluorescence read of the “HEX” channel in a Bio-Rad CFX96 thermocycler (Bio-Rad, Hercules, Calif.). Melt curves were fitted to the Boltzmann equation (y=A2+(A1−A2)/(1+exp((x−xo)/dx)) where xo is the Tm) to determine the melting temperature (Tm) using GraphPad Prism 6 (San Diego Calif.). Melting temperatures are represented as the mean and standard error of two biological replicates, each of which consisted of three technical replicates. Compounds not listed were not tested.

| SMILES | DSF Melting Temp |
| --- | --- |
| Cc1cc(-c2ccc3cc[nH]c(=O)c3c2)ccc1[C@@H](O)[C@H]1O[C@H](CO)[C@@H](O)[C@H](O)[C@@H]1O [Example 2, 7-(4-((R)-hydroxy((2R,3S,4S,5S,6R)-3,4,5-trihydroxy-6-(hydroxymethyl)tetrahydro-2H-pyran-2-yl)methyl)-3-methylphenyl)isoquinolin-1 (2H)-one] | 77.5 °C |
